Measured values reported in US20240000680A1, “MONO-HYDROXY OR DI-HYDROXY DERIVATIVES OF POLYUNSATURATED FATTY ACIDS, PRODUCTION METHOD THEREFOR, AND USE THEREOF” (KOLON INDUSTRIES, INC., priority 2019, published 2024).
Several values for one entry are separate records, joined by “and”; a condition that tells them apart may be missing. Equal values may be shown once.

What was measured:
Type in all cases: cell-based
[1] = system: procollagen; test: Procollagen synthesis in human dermal fibroblasts (PIP EIA), Example 7; conditions: for Procollagen synthesis (% of control) Average: 24 hours; for Procollagen synthesis (% of control) Average / amount of procollagen (Table 10, single component vs complex composition): untreated control = 100; for amount of procollagen compared to positive control group (50 μM of retinyl palmitate): at a concentration of 1 μg/ml or more; for amount of procollagen compared to untreated control group: single components, Table 8 concentrations; for amount of procollagen (Table 10, single component vs complex composition): concentration not given in Table 10
Source text: Collagen, a major component of the extracellular matrix, is synthesized in the form of a precursor called procollagen. The procollagen is known to be cut and isolated from collagen molecules when a polymerization reaction occurs. By measuring the amount of procollagen, the degree of collagen biosynthesis in the cells may be estimated.
[…] In this connection, the effect of the SPM single component and its complex compositions (compositions 1 to 3) was identified by using a case in which nothing was treated as an untreated control group and a case in which 50 μM of retinyl palmitate was treated as Con(+).

[2] = system: TNF-α; test: TNF-α expression inhibition in UVB-irradiated human keratinocytes (ELISA), Example 4-2; conditions: 10 ppm; UVB 160 mJ/cm^2; 24 hours
Method: (§1) Human keratinocytes were aliquoted in a 48-well plate at a concentration of 4×10^4 cells/well and cultured for 24 hours at 5% CO2 and 37° C., then the medium was removed and starvation state was maintained with DMEM Serum Free media for 24 hours.
(§2) The SPM 1 and SPM 2 were diluted with DMEM (2% FBS) to make 1 ppm, and then diluted sequentially to 0.1, 0.01 and 0.001 ppm, and then cultured as above and treated with human keratinocytes from which the medium was removed for 1 hour. Then, for TNF-α or IL-6 expression, the medium was exchanged with 250 μl of DPBS (WelGENE), irradiated with 160 mJ/cm^2 of UVB, and then treated with the SPM 1 and SPM 2 again and cultured for 24 hours. In addition, after collecting the medium, the amount of TNF-α was measured using Human TNF-α DuoSet ELISA (R&D system), and the amount of IL-6 was measured using Human IL-6 DuoSet ELISA (R&D system), respectively. The cells adhering to the bottom were washed with DPBS, dissolved with 1N NaOH, and the amount of protein was measured through BCA analysis to measure the amount of TNF-α or IL-6 synthesized per a given protein. In this connection, the effect of the two reaction products SPM 1 and SPM 2 was identified by using a case in which nothing was treated as a negative control group and a case in which 10 ppm of dexamethasone was treated as a positive control group.

[3] = system: IL-6; test: IL-6 expression inhibition in UVB-irradiated human keratinocytes (ELISA), Example 4-2; conditions: 10 ppm; UVB 160 mJ/cm^2; 24 hours
Method: as §1, §2

[4] = system: IL-6; test: IL-6 expression in UVB-irradiated HaCaT human keratinocytes (ELISA), Example 6; conditions: for IL-6 expression (% of control) Average: UVB +; for IL-6 expression (% of control) Average / expression of IL-6 (Table 7, single component vs complex composition): Con(−) = 100; for reduction of expression of IL-6 compared to Con(−): after UVB irradiation; for expression of IL-6 (Table 7, single component vs complex composition): UVB 20 mJ/cm^2
Method: In order to identify the synergistic anti-inflammation relieving effect of the SPMs complex composition, the complex compositions (Complexes 1 to 3) of 17-HDHA, Resolvin D5, and Protectin DX and each SPM single material were treated with HaCaT cells, which are human keratinocytes to identify changes in IL-6 expression.
Specifically, first, human keratinocytes were aliquoted in a 48-well plate at a concentration of 4×10^4 cells/well and cultured at 5% CO2, 37° C. for 24 hours, and then the medium was removed and the starvation state was maintained with DMEM Serum Free media for 24 hours.
The SPMs complex composition was diluted with DMEM (FBS 2%) to make 0.5, 1, 2, and 5 μg/ml, and then cultured as above and treated with human keratinocytes from which the medium was removed for 1 hour. […] In addition, after collecting the medium, the amount of IL-6 was measured using Human IL-6 DuoSet ELISA (R&D system). The cells adhering to the bottom were washed with DPBS, dissolved with 1N NaOH, and the amount of protein was measured through BCA analysis to measure the amount of IL-6 synthesized per a given protein. In this connection, the IL-6 expression inhibitory effect of the SPMs complex composition of the present invention and each single component was identified by using a case in which nothing was treated as Con(−) and a case in which 10 μM of hydrocortisone was treated as Con(+) after UVB irradiation.

[5] = system: filaggrin; test: Filaggrin gene expression in human keratinocytes (RT-PCR), Example 12; conditions: 50 ppm
Source text: (§3) Filaggrin, loricrin, and involucrin are known as core proteins constituting the skin barrier. Among them, filaggrin is a protein produced by decomposition of profilagrin, which constitutes keratohyalin granule (KG) present in granule cells of the epidermis, and plays an important role in the skin barrier by aggregating keratin filaments in keratinocytes. Accordingly, it was attempted to identify the skin barrier strengthening effect by identifying he expression of filaggrin and loricrin by the sample.
(§4) Human keratinocytes were cultured in DMEM medium under the same conditions as in Example 9. In order to identify the gene expression related to skin barrier improvement ability, the cultured cells were treated with the SPMs complex composition of the present invention by concentration and cultured, and then RNA was extracted and RT-PCR was performed. The amplified gene was analyzed using the Gel documentation system and Image J program.

[6] = system: loricrin; test: Loricrin gene expression in human keratinocytes (RT-PCR), Example 12; conditions: 50 ppm
Source text: as §3, §4

[7] = system: MMP-1; test: Collagenase (MMP-1) expression inhibition in UVB-irradiated human dermal fibroblasts (ELISA), Example 4-4; conditions: 6 ppm; UVB 100 mJ/cm^2; 48 hours
Method: (§5) MMPs (matrix metalloproteinases) are enzymes with proteolytic activity, and by decomposing proteins constituting the extracellular matrix, they have an important effect on the binding of cells and proteins constituting the extracellular matrix. There are 28 types of MMPs, of which MMP-1 is an enzyme that decomposes collagen. In this example, the expression level of MMP-1 in cells was identified.
After culturing human dermal fibroblasts for 24 hours, the medium was exchanged with DPBS (WelGENE) at a concentration of 250 μl/well, and irradiated with 100 mJ/cm^2 of UVB. Then, the SPM 1 and SPM 2 were treated with DMEM (2% FBS) diluted to a concentration of 0.01, 0,1 and 1 ppm, respectively, and cultured for 48 hours. After collecting the cultured cell medium, the amount of MMP-1 was measured using a human total MMP-1 ELISA kit (R&D systems, DY901). At this connection, the effect of the two reaction products SPM 1 and SPM 2 was identified by using a case in which nothing was treated as a negative control group and a case in which 6 ppm of retinoic acid was treated as a positive control group.

[8] = system: MMP-1; test: Collagenase (MMP-1) expression inhibition in UVB-irradiated human dermal fibroblasts, Example 8; conditions: 20 μM; UVB 100 mJ/cm^2; 48 hours
Method: as §5
Specifically, after culturing human dermal fibroblasts for 24 hours, the medium was exchanged with DPBS (WelGENE) at a concentration of 250 μl/well, and irradiated with 100 mJ/cm^2 of UVB. Then, the composition 2 was treated with DMEM (2% FBS) diluted to a concentration of 0.1, 1, 2, and 5 ppm, respectively, and cultured for 48 hours. After collecting the cultured cell medium, the amount of MMP-1 was measured using a human total MMP-1 ELISA kit (R&D systems, DY901). At this connection, the effect of composition 2 was identified by using a case in which nothing was treated as a negative control group and a case in which 20 μM of retinoic acid was treated as a positive control group.

[9] = system: TNF-α; test: TNF-α expression inhibition in UVB-irradiated human keratinocytes, Example 9; conditions: 10 μM; UVB 160 mJ/cm^2; 24 hours
Method: Specifically, human keratinocytes were aliquoted in a 48-well plate at a concentration of 4×10^4 cells/well and cultured for 24 hours at 5% CO2 and 37° C., then the medium was removed and starvation state was maintained with DMEM Serum Free media for 24 hours.
The composition 2 was diluted with DMEM (2% FBS) to make 0.5, 1, 2, and 5 μg/ml, and then cultured as above and treated with human keratinocytes from which the medium was removed for 1 hour. Then, for TNF-α expression, the medium was exchanged with 250 μl of DPBS (WelGENE), irradiated with 160 mJ/cm^2 of UVB, and then treated with the SPMs again and cultured for 24 hours. In addition, after collecting the medium, the amount of TNF-α was measured using Human TNF-α DuoSet ELISA (R&D system), respectively. The cells adhering to the bottom were washed with DPBS, dissolved with 1N NaOH, and the amount of protein was measured through BCA analysis to measure the amount of TNF-α synthesized per a given protein. In this connection, the effect of the SPMs complex composition was identified by using a case in which nothing was treated as a negative control group and a case in which 10 μM of hydrocortisone was treated as a positive control group.

Compound	Procollagen synthesis (% of control) Average ([1]; 0.01 μg/ml)	Procollagen synthesis (% of control) Average ([1]; 0.1 μg/ml)	Procollagen synthesis (% of control) Average ([1]; 1 μg/ml)	Procollagen synthesis (% of control) Average ([1]; 2 μg/ml)	amount of procollagen compared to untreated control group [1]	amount of procollagen (Table 10, single component vs complex composition) [1]	IL-6 expression (% of control) Average ([4]; 0.1 μg/ml)	IL-6 expression (% of control) Average ([4]; 1 μg/ml)	IL-6 expression (% of control) Average ([4]; 2 μg/ml)	reduction of expression of IL-6 compared to Con(−) ([4]; 2 μg/ml) [%]	IL-6 expression (% of control) Average ([4]; 5 μg/ml)	expression of IL-6 (Table 7, single component vs complex composition) ([4]; 2 μg/ml)	also measured
CCCCCCCCCCCCCCCC(=O)OC/C=C(C)/C=C/C=C(C)/C=C/C1=C(C)CCCC1(C)C [Con(+) R.P., retinyl palmitate, reference compound]	–	–	–	–	–	–	–	–	–	–	–	–	Procollagen synthesis (% of control) Average ([1]; 50 μM): 249.88 % of control and 240.2 % of control
C[C@@H]1C[C@H]2[C@@H]3CCC4=CC(=O)C=C[C@]4(C)[C@@]3(F)[C@@H](O)C[C@]2(C)[C@@]1(O)C(=O)CO [dexamethasone]	–	–	–	–	–	–	–	–	–	–	–	–	reduction of UVB-increased expression of TNF-α [2]: about 35%; reduction of UVB-increased expression of IL-6 [3]: about 88%
CC/C=C\C[C@H](O)/C=C/C=C\C/C=C\C=C\[C@@H](O)C/C=C\CCC(=O)O [RvD5, 7S, 17S-dihydroxy-4Z, 8E, 10Z, 13Z, 15E, 19Z-docosahexaenoic acid]	245.68 % of control	248 % of control	249.34 % of control	255.32 % of control	greater amount of procollagen than the untreated control group	255.32	99.58 % of control	109.86 % of control	99.49 % of control	0.5	83.38 % of control	99.49	amount of procollagen compared to positive control group (50 μM of retinyl palmitate) [1]: greater amount of procollagen was identified compared to the positive control group
hyaluronic acid	–	–	–	–	–	–	–	–	–	–	–	–	increase in expression of filaggrin [5]: 52.6%; increase in expression of loricrin [6]: 97.7%
CC1=C(/C=C/C(C)=C/C=C/C(C)=C/C(=O)O)C(C)(C)CCC1 [retinoic acid]	–	–	–	–	–	–	–	–	–	–	–	–	reduction of UVB-increased expression of MMP-1 [7]: about 70%; reduction of UVB-increased expression of MMP-1 [8]: about 70%
CC/C=C\CC(O)/C=C/C=C\C/C=C\C/C=C\C/C=C\CCC(=O)O (racemic) [Composition 17S-HDHA, (±) 17-hydroxy (dihydroxy)-4Z, 7Z, 10Z, 13Z, 15E, 19Z-docosahexaenoic acid]	212.76 % of control	237.76 % of control	235.8 % of control	255.32 % of control	greater amount of procollagen than the untreated control group	255.32	89.63 % of control	83 % of control	89.17 % of control	10.8	81.66 % of control	89.17	–
C[C@]12CCC(=O)C=C1CC[C@@H]1[C@@H]2[C@@H](O)C[C@@]2(C)[C@H]1CC[C@]2(O)C(=O)CO [Con(+) H.C., hydrocortisone, reference compound]	–	–	–	–	–	–	–	–	–	–	–	–	IL-6 expression (% of control) Average ([4]; 10 μM): 31.23 % of control and 42.82 % of control; reduction of UVB-increased expression of TNF-α [9]: about 52%
CC/C=C\C[C@H](O)/C=C/C=C\C=C\[C@@H](O)C/C=C\C/C=C\CCC(=O)O [PDX, 10S, 17S-dihydroxy-4Z,7Z,11E,13Z,15E,19Z-docosahexaenoic acid]	237.15 % of control	244.1 % of control	251.41 % of control	254.1 % of control	greater amount of procollagen than the untreated control group	254.1	95.36 % of control	102.69 % of control	88.13 % of control	11.8	86.72 % of control	88.13	amount of procollagen compared to positive control group (50 μM of retinyl palmitate) [1]: greater amount of procollagen was identified compared to the positive control group
